From patent publication US20160168541A1, “TRANSDUCIBLE MATERIALS FOR CELL REPROGRAMMING” (VIVOSCRIPT, INC., priority 2013, published 2016)
Entries after “also recorded” stand apart in the source; their conditions may differ.

Assays:
Type in all cases: cell-based
adult human fibroblasts [1] = test: Live fluorescent imaging of uptake and nuclear occupancy of sGFP polypeptides in fibroblasts; settings: 10 μg/ml
Protocol: FIG. 5. Live fluorescent imaging of human fibroblasts after culturing in 10 μg/ml of first generation sGFP-MyoD-11R.
In the first generation of transducible materials, a sGFP transduction domain and a poly-arginine (11R) were fused to the N-terminus and C-terminus of MyoD through a linker (SEQ ID NO: 99) respectively to generate sGFP-MyoD-11R (SEQ ID NO: 156). […] The nuclear entry of sGFP-MyoD-11R was increased by using 100 μg/ml sGFP-MyoD-11R and electroporation, which successful reprogrammed very low percentage (around 10%) of FBs to MyoD+ myoblasts.
The second generation of transducible materials, a strong classic nuclear localization sequence (cNLS), the SV40 T antigen NLS, was added in-between sGFP and MyoD-11R (SEQ ID NO: 157 and FIG. 3).
Leptomycin B (leptoB), a nuclear export blocker, was added at 5 nM to adult fibroblasts to enhance nuclear occupancy of sGFP-NLS-MyoD-11R. […] Higher concentrations of leptoB might have off-target effects, which limits its use in enhancing nuclear retention of specific polypeptides.
In the third generation of transducible materials, the NES of MyoD was mutated to generate sGFP-NLS-MyoD(mNES)-11R (SEQ ID NO: 127 and FIG. 3) to further improve their nuclear occupancy and transcription efficiency. […] These SCs were positive for Myf5 (>90% of SCs) at 22 days after transduction (FIG. 8B). Also, these SCs could be induced to differentiate to myoblasts with downregulation of Pax7 and upregulation of MyoD via a published myogenic protocol (Cosgrove et al, Rejuvenation of the muscle stem cell population restores strength to injured aged muscles, Nat Med., 20:255-64 (2014)). […] Thus, by using sGFP-NLS-MyoD(mNES)-11R, efficient fibroblasts conversion to SMPCs can be achieved in a controlled fashion. The risk of extensive durations of MyoD activation is completely avoided. Most myogenic analysis was performed at >2 weeks after polypeptide transduction to avoid confounding issues from added exogenous polypeptides. In summary, adult fibroblast can be successfully reprogrammed to SCs using sGFP-NLS-MyoD(mNES)-11R with defined kinetics (2-day nuclear occupancy and 2-3 week peptide lifespan).

adult human fibroblasts [2] = test: Reprogramming of fibroblasts to skeletal muscle progenitor cells (satellite cells, myoblasts)
Protocol: FIG. 4. Schematic of experimental protocol to convert fibroblasts to myoblasts with transducible materials derived from MyoD.
In this example, three versions of transducible materials derived from MyoD (the master myogenic transcription factor) were generated and their effects on reprogramming fibroblast cells into skeletal muscle progenitor cells (SMPCs) were compared.
Most myogenic analysis was performed at >2 weeks after polypeptide transduction to avoid confounding issues from added exogenous polypeptides.

[3] = system: Oct4 target genes (Oct4, Sox2, Nanog, Smad3 and Smad4); test: RT-qPCR of Oct4 target genes in HepG2 cells treated with transducible materials; settings: serum-free medium, 6 hours, normalized by GAPDH, sGFP-treated sample set as 1.00
Protocol: FIG. 2. Comparison of sGFP-Oct4(mNES) and sGFP-Oct4 protein in regulating the expression of downstream genes. HepG2 cells were treated with sGFP, sGFP-Oct4 or sGFP-Oct4(mNES) in serum-free medium for 6 hours. RNA was isolated and RT-qPCR was performed. The expression of each gene was normalized by the expression level of GAPDH. The relative expression level of each gene in the control condition (sGFP-treated sample) was set as 1.00.
HepG2 cells were treated with transducible materials comprising isolated polypeptide of sGFP, sGFP-Oct4-11R or sGFP-Oct4(mNES)-11R in serum-free medium for 6 hours. RNA was extracted from each sample using RNeasy Micro Kit from Qiagen and cDNA was synthesized through reverse transcription reaction. RT-qPCRs of five Oct4 target genes (Oct4, Sox2, Nanog, Smad3 and Smad4 were performed using a pair of primers specific to each target gene and a hydrolysis probe from Roche Universal ProbeLibrary on LightCycler 480 II. The expression of each gene was normalized by the expression level of GAPDH. The relative expression level of each gene in the control condition (sGFP-treated sample) was set as 1.00.

Row | Substance | time the polypeptide stays in the nucleus (adult human fibroblasts [1]; leptomycin B 5 nM) [h] | nuclear occupancy (GFP signal in nuclei) with leptomycin B (adult human fibroblasts [1]; leptomycin B 5 nM, third generation at 30 min, 24 hours and 48 hours) | nuclear occupancy (localization of GFP signal) (adult human fibroblasts [1]; no leptomycin B) | change of nuclear occupancy with time (adult human fibroblasts [1]; no leptomycin B, 24 hours) | reprogramming of fibroblasts to SMPCs (adult human fibroblasts [2]; 10 μg/ml, no leptomycin B) | reprogramming efficiency of adult fibroblasts to SMPCs (adult human fibroblasts [2]; continuous presence of leptomycin B 5 nM) | expression of Oct4 target genes [3]
1 | sGFP-NLS-MyoD-11R: Second generation: SV40 T antigen NLS added between sGFP and MyoD-11R, SEQ ID NO: 157 | > 24 | slightly improves the nuclear occupancy | more transducible materials were observed in nuclei; also recorded: GFP signal were observed in the nuclei | significantly decreased within 24 hours; also recorded: GFP signal in the nuclei decreased after 24 hours | low and inconsistent | around 5% | 
2 | sGFP-Oct4-11R: Fusion polypeptide of supercharged GFP, Oct4 and 11R, SEQ ID NO: 155, unmutated NES |  |  |  |  |  |  | does not increase
